In ChEMBL document CHEMBL4831504, “Rearranged Diels-Alder Adducts and Prenylated Flavonoids as Potential PTP1B Inhibitors from Morus nigra” (J Nat Prod, 2021):

How the values were obtained:
[1] = biological target: T1, Tyrosine-protein phosphatase non-receptor type 1 (Homo sapiens) (UniProt P18031); experiment: Inhibition of recombinant PTP1B catalytic domain (unknown origin) assessed as reduction in pNP formation using pNPP as substrate at 20 ug/ml by absorbance based analysis relative to control; settings: dose 20.0 µg/ml
T1 sequence (whole entry): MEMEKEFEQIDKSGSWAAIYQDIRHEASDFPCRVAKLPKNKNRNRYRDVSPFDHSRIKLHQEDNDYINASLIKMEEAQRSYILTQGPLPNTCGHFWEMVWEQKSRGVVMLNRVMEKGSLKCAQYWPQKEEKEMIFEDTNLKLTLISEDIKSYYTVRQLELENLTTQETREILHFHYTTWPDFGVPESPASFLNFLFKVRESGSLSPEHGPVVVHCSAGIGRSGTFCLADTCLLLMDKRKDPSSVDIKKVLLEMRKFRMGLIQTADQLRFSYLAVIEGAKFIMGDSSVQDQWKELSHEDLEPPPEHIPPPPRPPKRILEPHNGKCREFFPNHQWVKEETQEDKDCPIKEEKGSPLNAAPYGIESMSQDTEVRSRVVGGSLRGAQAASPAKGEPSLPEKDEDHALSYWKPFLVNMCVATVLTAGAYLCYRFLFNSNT

[2] = biological target: T2, Tyrosine-protein phosphatase non-receptor type 1 (Homo sapiens, UniProt P18031); experiment: Inhibition of recombinant PTP1B catalytic domain (unknown origin) assessed as reduction in pNP formation using pNPP as substrate by absorbance based analysis
T2 sequence (P18031 whole entry): T1 sequence (whole entry)

SMILES	inhibition [1]	IC50 [2]
CC(C)=CCc1c(-c2ccc(O)cc2O)oc2cc3c(c(O)c2c1=O)C=CC(C)(C)O3 [CUDRAFLAVONE B]	70.9%	20 µM
CC(C)=CCc1c(O)cc(-c2cc3ccc(O)cc3o2)cc1O [MORACIN C]	90.6%	10.2 µM
CC(C)=CCc1c(-c2ccc(O)cc2O)oc2c3c(cc(O)c2c1=O)OC(C)(C)C=C3 [MORUSIN]	71.5%	22.1 µM
CC(C)=C[C@H]1Oc2cc(O)ccc2-c2oc3cc(O)ccc3c(=O)c21	45.4%	≥ 50 µM
CC(C)=CCc1cc(-c2oc3cc(O)cc(O)c3c(=O)c2CC=C(C)C)c(O)cc1O	77.6%	12.5 µM
CC1(C)Oc2cc3oc(-c4cc(O)cc(O)c4)cc3cc2CC1O (stereo not drawn) [(+/-)-MORACIN P]	39.1%	≥ 50 µM

Now those with a lower IC50 [2], led by results:

inhibition [1]	IC50 [2]	SMILES
93.3%	7.7 µM	CC(C)=CCc1cc(-c2oc3c(CC=C(C)C)c(O)cc(O)c3c(=O)c2CC=C(C)C)c(O)cc1O
95.8%	5.3 µM	CC(C)=CCC/C(C)=C/Cc1c(O)cc(O)c2c(=O)c(CC=C(C)C)c(-c3ccc(O)cc3O)oc12
97%	1.8 µM	CC(C)=CCc1c(O)ccc(C(=O)Oc2cc(/C=C/c3ccc(O)cc3O)cc(O)c2-c2cc(C)cc(-c3ccc(O)cc3O)c2)c1O
99.2%	1.3 µM	CC(C)=CCc1c(O)ccc(C(=O)Oc2cc(-c3cc4ccc(O)cc4o3)cc(O)c2-c2cc(C)cc(-c3ccc(O)cc3O)c2)c1O
